Test system in one data set: not listed separately
Put plainly: pKa was determined. It counts as physicochemical.
As usually defined, the pKa is the pH at which an ionisable group is half protonated. High values mean a group that holds its proton tightly, low ones a group that gives up its proton readily. In the case of `NCCCC[C@H](N)C(=O)O` [LYSINE], the pKa was 10.2.

The target of a further data set is Prothrombin (Homo sapiens, UniProt P00734). Put plainly: Inhibition of human thrombin (in vitro).
One may read the Ki as a dissociation constant, usually derived from enzyme kinetics or from competition with a known ligand. A lower Ki goes with tighter binding. Regarding `CCCCNC(=O)NCCC1CCN(C(=O)[C@H](Cc2nc3ccccc3s2)NS(=O)(=O)c2cccc3c2NCC(C)(C)C3)CC1`, the Ki came out at 182 nM.

Consider `CNC(=O)NCCC1CCN(C(=O)[C@H](Cc2nc3ccccc3s2)NS(=O)(=O)c2cccc3c2NCC(C)(C)C3)CC1`, for which the Ki came to 24 nM.

In turn, `CCNC(=O)NCCC1CCN(C(=O)[C@H](Cc2nc3ccccc3s2)NS(=O)(=O)c2cccc3c2NCC(C)(C)C3)CC1` showed an inhibition constant Ki of 65 nM.

`CC1(C)CNc2c(cccc2S(=O)(=O)N[C@@H](Cc2nc3ccccc3s2)C(=O)N2CCN(CCO)CC2)C1` displayed a Ki of 350 nM.

The compound `CC1(C)CNc2c(cccc2S(=O)(=O)N[C@@H](Cc2nc3ccccc3s2)C(=O)N2CCC(CCCl)CC2)C1` yielded a Ki of 93 nM.

`COC(=O)NCCC1CCN(C(=O)[C@H](Cc2nc3ccccc3s2)NS(=O)(=O)c2cccc3c2NCC(C)(C)C3)CC1`: the Ki worked out at 56 nM.

For `CC1(C)CNc2c(cccc2S(=O)(=O)N[C@@H](Cc2nc3ccccc3s2)C(=O)N2CCC(CCF)CC2)C1`, the affinity corresponds to a Ki of 26 nM.

Take `CC1(C)CNc2c(cccc2S(=O)(=O)N[C@@H](Cc2nc3ccccc3s2)C(=O)N2CCC(CCO)CC2)C1`: the Ki was 79 nM.

Compound `CCC1CCN(C(=O)[C@H](Cc2nc3ccccc3s2)NS(=O)(=O)c2cccc3c2NCC(C)(C)C3)CC1` gave a Ki of 240 nM.

In the case of `CNC(=O)OCCC1CCN(C(=O)[C@H](Cc2nc3ccccc3s2)NS(=O)(=O)c2cccc3c2NCC(C)(C)C3)CC1`, the Ki worked out at 38 nM.

Regarding `CC(=O)NCCC1CCN(C(=O)[C@H](Cc2nc3ccccc3s2)NS(=O)(=O)c2cccc3c2NCC(C)(C)C3)CC1`, affinity was put at a Ki of 654 nM.

Turning to `CC1(C)CNc2c(cccc2S(=O)(=O)N[C@@H](Cc2nc3ccccc3s2)C(=O)N2CCC(CCN)CC2)C1`, the Ki came to 1180 nM.

Consider `CNS(=O)(=O)NCCC1CCN(C(=O)[C@H](Cc2nc3ccccc3s2)NS(=O)(=O)c2cccc3c2NCC(C)(C)C3)CC1`, for which the Ki is 119 nM.

`CN(C)CCC1CCN(C(=O)[C@H](Cc2nc3ccccc3s2)NS(=O)(=O)c2cccc3c2NCC(C)(C)C3)CC1` returned a Ki of 38300 nM.

Take `CC1(C)CNc2c(cccc2S(=O)(=O)N[C@@H](Cc2nc3ccccc3s2)C(=O)N2CCC(CCC(=O)O)CC2)C1`: the Ki turned out to be 7830 nM.

`CN(C)C(=O)NCCC1CCN(C(=O)[C@H](Cc2nc3ccccc3s2)NS(=O)(=O)c2cccc3c2NCC(C)(C)C3)CC1`: affinity was put at a Ki of 1000 nM.

`CC1(C)CNc2c(cccc2S(=O)(=O)N[C@@H](Cc2nc3ccccc3s2)C(=O)N2CCC(CCNC(=O)OC(C)(C)C)CC2)C1`: the affinity, expressed as Ki, was 52 nM.

These data come from ChEMBL document CHEMBL1132048, “Optimisation of the P2 pharmacophore in a series of thrombin inhibitors: ion-dipole interactions with lysine 60G” (Bioorg Med Chem Lett, 1999).
